Test results from US20260151504A1, “SYNTHETIC CELLS COMPRISING TNF-RELATED APOPTOSIS-INDUCING LIGAND (TRAIL) AND METHODS OF USING THE SAME” (Slingshot Biosciences, Inc., priority 2023, published 2026).

Assays:
Jurkat tumor cells = assay: Annexin V / 7-AAD flow cytometry of Jurkat tumor cells treated with TRAIL delivery systems; type: cell-based; settings: camptothecin 100 nM, percentage of cells
Procedure: (§1) Briefly, 100K live Jeko-1 or Jurkat cells were plated in RPMI media containing 10% Fetal bovine serum and 1% PenStrep in 100 μL volume.
(§2) Synthetic cytotoxic cells and equivalent total molecules of soluble TRAIL were plated 8 hours post seeding of tumor cells in 100 μL total volume. Amount of soluble TRAIL per well to match the amount of microsphere or bead-bound TRAIL was calculated as follows. Assuming 150K TRAIL molecules per microsphere/bead and 1e^6 microsphere/bead per well, 1.5e^11 soluble TRAIL molecules per well were used, which was calculated to be equivalent to 23 ng soluble TRAIL per well.
(§3) Twenty-four and forty-eight hours post incubation, cells were harvested and stained with Annexin V and 7-AAD. Anti-CD19 and Anti-CD3 antibodies were used to separate Jeko-1 cells from beads and Jurkat cells from beads, respectively. While Jeko-1 cells are CD19-expressing B-cells that are TRAIL-sensitive, Jurkat cells are CD3-expressing T cells that have low-moderate sensitivity to TRAIL. Determination of stage of cell death and % apoptotic cells were determined from the gating strategy outlined in FIG. 8. Samples were plated in duplicates and all sample acquisition was performed on the Cytoflex Beckman Coulter Flow Cytometer 24 hours and 48 hours post treatment of tumor cells with treatment conditions. Data analysis was further processed on FlowJo™ v10 software.

Jeko-1 tumor cells = assay: Annexin V / 7-AAD flow cytometry of Jeko-1 tumor cells treated with TRAIL delivery systems; type: cell-based; settings: camptothecin 100 nM, percentage of cells
Procedure: as §1, §2, §3

[1] = Table 4A, Jeko-1, 24 Hrs., TRAIL equivalent to 1.5e^11 molecules per well

Compound: CC[C@@]1(O)C(=O)OCc2c1cc1n(c2=O)Cc2cc3ccccc3nc2-1 [Camptothecin, camptothecin]
- Early Stage Apoptotic (7-AAD−/Annexin V+) (Jurkat tumor cells; Table 5A, 24 Hrs.): 59.8
- Late Stage Apoptotic (7-AAD+/Annexin V+) (Jurkat tumor cells; Table 5A, 24 Hrs.): 26.9
- Live Cells (7-AAD−/Annexin V−) (Jurkat tumor cells; Table 5A, 24 Hrs.): 13.1
- Necrotic (7-AAD+/Annexin V−) (Jurkat tumor cells; Table 5A, 24 Hrs.): 0.13
- Early Stage Apoptotic (7-AAD−/Annexin V+) (Jurkat tumor cells; Table 5B, 48 Hrs.): 25.5
- Late Stage Apoptotic (7-AAD+/Annexin V+) (Jurkat tumor cells; Table 5B, 48 Hrs.): 69.8
- Live Cells (7-AAD−/Annexin V−) (Jurkat tumor cells; Table 5B, 48 Hrs.): 3.36
- Necrotic (7-AAD+/Annexin V−) (Jurkat tumor cells; Table 5B, 48 Hrs.): 1.33
- Early Stage Apoptotic (7-AAD−/Annexin V+) (Jeko-1 tumor cells; [1]): 56.5
- Late Stage Apoptotic (7-AAD+/Annexin V+) (Jeko-1 tumor cells; [1]): 39.5
- Live Cells (7-AAD−/Annexin V−) (Jeko-1 tumor cells; [1]): 3.88
- Necrotic (7-AAD+/Annexin V−) (Jeko-1 tumor cells; [1]): 0.077
- Early Stage Apoptotic (7-AAD−/Annexin V+) (Jeko-1 tumor cells; Table 4B, Jeko-1, 48 Hrs.): 7.64
- Late Stage Apoptotic (7-AAD+/Annexin V+) (Jeko-1 tumor cells; Table 4B, Jeko-1, 48 Hrs.): 91.0
- Live Cells (7-AAD−/Annexin V−) (Jeko-1 tumor cells; Table 4B, Jeko-1, 48 Hrs.): 1.19
- Necrotic (7-AAD+/Annexin V−) (Jeko-1 tumor cells; Table 4B, Jeko-1, 48 Hrs.): 0.13
